Measured values published in US5268374A, “Non-peptide renin inhibitors” (Abbott Laboratories, priority 1991, dated 1993).

How the values were obtained:
human renal renin = biological target: T1, human renal renin (Homo sapiens, UniProt P00797); assay: Inhibition of human renal renin in vitro (angiotensin I formation by radioimmunoassay); assay type: biochemical; settings: human renal renin, 37 degrees C, pH 6.0; read-out: IC50
T1 construct: from tissue; host or cells: human kidney (read from the word 'renal'; no preparation is printed)
T1 sequence (P00797 67-406): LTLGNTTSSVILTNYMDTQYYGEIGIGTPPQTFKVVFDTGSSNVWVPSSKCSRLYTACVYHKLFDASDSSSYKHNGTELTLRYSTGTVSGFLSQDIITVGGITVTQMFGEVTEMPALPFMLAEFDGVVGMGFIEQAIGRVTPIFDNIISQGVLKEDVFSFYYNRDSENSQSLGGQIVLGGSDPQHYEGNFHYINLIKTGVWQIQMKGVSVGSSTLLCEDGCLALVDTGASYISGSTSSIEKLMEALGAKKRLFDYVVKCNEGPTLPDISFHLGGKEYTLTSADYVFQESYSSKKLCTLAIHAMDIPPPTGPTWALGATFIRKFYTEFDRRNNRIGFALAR

[1] = Blood pressure in salt-depleted monkeys after oral dosing; assay type: in vivo, cynomolgous monkeys; settings: 3 mg/kg oral
Text: (§1) The ability of the compounds of the invention to decrease blood pressure and plasma renin activity in vivo can be determined using the following method.
(§2) Male cynomolgous monkeys housed under constant temperature and lighting conditions and weighing 3-5 kg were instrumented with chronic indwelling arterial and venous catheters.

plasma renin = assay: Plasma renin activity (PRA) in salt-depleted monkeys after oral dosing; assay type: in vivo, cynomolgous monkeys; settings: 3 mg/kg oral
Text: as §1, §2

[2] = Mean of two monkeys, time 0 min

SMILES: CCCC[C@H](O[C@@H](Cc1ccccc1)C(=O)N1CCC(OCOC)CC1)C(=O)N[C@@H](CC1CCCCC1)[C@@H](O)C[C@H](C(=O)NCCCN1CCOCC1)C(C)C [Example 118, 2(S)-(1(S)-(4-(Methoxymethoxy)piperidin-1-yl)carbonyl-2-phenyl)ethoxyhexanoic acid amide of 3-(4-morpholinyl)propyl 5(S)-amino-6-cyclohexyl-4(S)-hydroxy-2(S)-isopropylhexanamide]
- IC50 (human renal renin): 0.84 nM
- Blood pressure (BP) ([1]; Mean of two monkeys, 5 min): 117 mmHg
- Blood pressure (BP) ([1]; Mean of two monkeys, 15 min): 111 mmHg
- Blood pressure (BP) ([1]; Mean of two monkeys, 30 min): 112 mmHg
- Blood pressure (BP) ([1]; Mean of two monkeys, 45 min): 104 mmHg
- Blood pressure (BP) ([1]; Mean of two monkeys, 60 min): 109 mmHg
- Blood pressure (BP) ([1]; Mean of two monkeys, 90 min): 98 mmHg
- Blood pressure (BP) ([1]; Mean of two monkeys, 120 min): 94 mmHg
- Blood pressure (BP) ([1]; Mean of two monkeys, 180 min): 94 mmHg
- Blood pressure (BP) ([1]; Mean of two monkeys, 360 min): 99 mmHg
- Blood pressure (BP) [1, 2]: 114 mmHg
- Blood pressure (BP) ([1]; Monkey 1, 5 min): 112 mmHg
- Blood pressure (BP) ([1]; Monkey 1, 15 min): 105 mmHg
- Blood pressure (BP) ([1]; Monkey 1, 30 min): 113 mmHg
- Blood pressure (BP) ([1]; Monkey 1, 45 min): 95 mmHg
- Blood pressure (BP) ([1]; Monkey 1, 60 min): 102 mmHg
- Blood pressure (BP) ([1]; Monkey 1, 90 min): 90 mmHg
- Blood pressure (BP) ([1]; Monkey 1, 120 min): 84 mmHg
- Blood pressure (BP) ([1]; Monkey 1, 180 min): 84 mmHg
- Blood pressure (BP) ([1]; Monkey 1, 360 min): 94 mmHg
- Blood pressure (BP) ([1]; Monkey 1, time 0 min): 107 mmHg
- Blood pressure (BP) ([1]; Monkey 2, 5 min): 121 mmHg
- Blood pressure (BP) ([1]; Monkey 2, 15 min): 117 mmHg
- Blood pressure (BP) ([1]; Monkey 2, 30 min): 110 mmHg
- Blood pressure (BP) ([1]; Monkey 2, 45 min): 112 mmHg
- Blood pressure (BP) ([1]; Monkey 2, 60 min): 115 mmHg
- Blood pressure (BP) ([1]; Monkey 2, 90 min): 106 mmHg
- Blood pressure (BP) ([1]; Monkey 2, 120 min): 103 mmHg
- Blood pressure (BP) ([1]; Monkey 2, 180 min): 103 mmHg
- Blood pressure (BP) ([1]; Monkey 2, 360 min): 103 mmHg
- Blood pressure (BP) ([1]; Monkey 2, time 0 min): 120 mmHg
- Plasma Renin Activity (PRA) (plasma renin; Mean of two monkeys, 5 min): 9.7 ng/mL/h
- Plasma Renin Activity (PRA) (plasma renin; Mean of two monkeys, 15 min): 1.5 ng/mL/h
- Plasma Renin Activity (PRA) (plasma renin; Mean of two monkeys, 30 min): 0.4 ng/mL/h
- Plasma Renin Activity (PRA) (plasma renin; Mean of two monkeys, 45 min): 0.2 ng/mL/h
- Plasma Renin Activity (PRA) (plasma renin; Mean of two monkeys, 60 min): 0.2 ng/mL/h
- Plasma Renin Activity (PRA) (plasma renin; Mean of two monkeys, 90 min): 0.0 ng/mL/h
- Plasma Renin Activity (PRA) (plasma renin; Mean of two monkeys, 120 min): 0.3 ng/mL/h
- Plasma Renin Activity (PRA) (plasma renin; Mean of two monkeys, 180 min): 0.3 ng/mL/h
- Plasma Renin Activity (PRA) (plasma renin; Mean of two monkeys, 360 min): 0.2 ng/mL/h
- Plasma Renin Activity (PRA) (plasma renin; [2]): 23.9 ng/mL/h
- Plasma Renin Activity (PRA) (plasma renin; Monkey 1, 5 min): 5.8 ng/mL/h
- Plasma Renin Activity (PRA) (plasma renin; Monkey 1, 15 min): 0.1 ng/mL/h
- Plasma Renin Activity (PRA) (plasma renin; Monkey 1, 30 min): 0.4 ng/mL/h
- Plasma Renin Activity (PRA) (plasma renin; Monkey 1, 45 min): 0.0 ng/mL/h
- Plasma Renin Activity (PRA) (plasma renin; Monkey 1, 60 min): 0.0 ng/mL/h
- Plasma Renin Activity (PRA) (plasma renin; Monkey 1, 90 min): 0.0 ng/mL/h
- Plasma Renin Activity (PRA) (plasma renin; Monkey 1, 120 min): 0.2 ng/mL/h
- Plasma Renin Activity (PRA) (plasma renin; Monkey 1, 180 min): 0.2 ng/mL/h
- Plasma Renin Activity (PRA) (plasma renin; Monkey 1, 360 min): 0.0 ng/mL/h
- Plasma Renin Activity (PRA) (plasma renin; Monkey 1, time 0 min): 29.1 ng/mL/h
- Plasma Renin Activity (PRA) (plasma renin; Monkey 2, 5 min): 13.5 ng/mL/h
- Plasma Renin Activity (PRA) (plasma renin; Monkey 2, 15 min): 2.9 ng/mL/h
- Plasma Renin Activity (PRA) (plasma renin; Monkey 2, 30 min): 0.4 ng/mL/h
- Plasma Renin Activity (PRA) (plasma renin; Monkey 2, 45 min): 0.3 ng/mL/h
- Plasma Renin Activity (PRA) (plasma renin; Monkey 2, 60 min): 0.3 ng/mL/h
- Plasma Renin Activity (PRA) (plasma renin; Monkey 2, 90 min): 0.0 ng/mL/h
- Plasma Renin Activity (PRA) (plasma renin; Monkey 2, 120 min): 0.4 ng/mL/h
- Plasma Renin Activity (PRA) (plasma renin; Monkey 2, 180 min): 0.4 ng/mL/h
- Plasma Renin Activity (PRA) (plasma renin; Monkey 2, 360 min): 0.3 ng/mL/h
- Plasma Renin Activity (PRA) (plasma renin; Monkey 2, time 0 min): 18.7 ng/mL/h
